# Measurements reported in ChEMBL document CHEMBL4673296 (J Med Chem, 2020).
# Calls of active or inactive are those of the source. No cut-off for these calls is given here.
# How the values were obtained:
# [1] = biological target: T1, Serine/threonine-protein kinase ULK1 (Homo sapiens, UniProt O75385); assay: Inhibition of recombinant human ULK1 (1-649) expressed in Sf9 cells using myelin basic protein as substrate by ADP-glo assay
# T1 sequence (O75385 whole entry): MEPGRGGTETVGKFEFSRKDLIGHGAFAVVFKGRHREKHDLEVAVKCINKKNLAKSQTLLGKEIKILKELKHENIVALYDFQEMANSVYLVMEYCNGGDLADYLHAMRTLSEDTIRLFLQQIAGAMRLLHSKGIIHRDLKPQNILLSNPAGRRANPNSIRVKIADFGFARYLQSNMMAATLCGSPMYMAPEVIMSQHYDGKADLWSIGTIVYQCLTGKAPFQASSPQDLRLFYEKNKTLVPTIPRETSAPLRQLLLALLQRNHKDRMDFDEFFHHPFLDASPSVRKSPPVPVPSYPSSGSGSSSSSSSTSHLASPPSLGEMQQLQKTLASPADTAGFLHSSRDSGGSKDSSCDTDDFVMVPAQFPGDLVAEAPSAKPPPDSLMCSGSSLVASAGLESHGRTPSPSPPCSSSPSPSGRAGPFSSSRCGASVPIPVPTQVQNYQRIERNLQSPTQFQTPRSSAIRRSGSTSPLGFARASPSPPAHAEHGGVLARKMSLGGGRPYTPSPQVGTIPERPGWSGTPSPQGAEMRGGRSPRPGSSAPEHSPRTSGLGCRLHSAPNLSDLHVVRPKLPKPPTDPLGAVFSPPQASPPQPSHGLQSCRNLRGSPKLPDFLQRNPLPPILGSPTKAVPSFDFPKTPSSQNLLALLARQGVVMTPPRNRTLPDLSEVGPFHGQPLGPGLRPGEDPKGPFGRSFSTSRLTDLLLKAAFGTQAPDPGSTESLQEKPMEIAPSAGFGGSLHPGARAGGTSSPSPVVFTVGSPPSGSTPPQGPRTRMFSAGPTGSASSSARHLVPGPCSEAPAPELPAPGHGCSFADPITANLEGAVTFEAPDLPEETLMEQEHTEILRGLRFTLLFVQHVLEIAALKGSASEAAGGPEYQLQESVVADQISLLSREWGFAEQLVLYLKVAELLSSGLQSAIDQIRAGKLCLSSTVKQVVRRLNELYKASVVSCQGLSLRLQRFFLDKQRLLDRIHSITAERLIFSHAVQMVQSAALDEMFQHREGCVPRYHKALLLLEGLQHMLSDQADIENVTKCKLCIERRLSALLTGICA
# [2] = biological target: T1, Serine/threonine-protein kinase ULK1; assay: Inhibition of ULK1 (unknown origin) expressed in HEK293T cells incubated for 2 hrs by NanoBRET assay; type: cell-based
# MDA-MB-468 [3] = assay: cells; conditions: Homo sapiens, MDA-MB-468, 72 h
# Description: Cytotoxicity against human MDA-MB-468 cells measured after 72 hrs by Celltiter-Glo assay
# [4] = biological target: T2, Serine/threonine-protein kinase ULK2 (Homo sapiens, UniProt Q8IYT8); assay: Inhibition of recombinant human ULK2 (1 to 478 residues) expressed in Sf9 cells using myelin basic protein as substrate by ADP-glo assay
# T2 sequence (Q8IYT8 whole entry): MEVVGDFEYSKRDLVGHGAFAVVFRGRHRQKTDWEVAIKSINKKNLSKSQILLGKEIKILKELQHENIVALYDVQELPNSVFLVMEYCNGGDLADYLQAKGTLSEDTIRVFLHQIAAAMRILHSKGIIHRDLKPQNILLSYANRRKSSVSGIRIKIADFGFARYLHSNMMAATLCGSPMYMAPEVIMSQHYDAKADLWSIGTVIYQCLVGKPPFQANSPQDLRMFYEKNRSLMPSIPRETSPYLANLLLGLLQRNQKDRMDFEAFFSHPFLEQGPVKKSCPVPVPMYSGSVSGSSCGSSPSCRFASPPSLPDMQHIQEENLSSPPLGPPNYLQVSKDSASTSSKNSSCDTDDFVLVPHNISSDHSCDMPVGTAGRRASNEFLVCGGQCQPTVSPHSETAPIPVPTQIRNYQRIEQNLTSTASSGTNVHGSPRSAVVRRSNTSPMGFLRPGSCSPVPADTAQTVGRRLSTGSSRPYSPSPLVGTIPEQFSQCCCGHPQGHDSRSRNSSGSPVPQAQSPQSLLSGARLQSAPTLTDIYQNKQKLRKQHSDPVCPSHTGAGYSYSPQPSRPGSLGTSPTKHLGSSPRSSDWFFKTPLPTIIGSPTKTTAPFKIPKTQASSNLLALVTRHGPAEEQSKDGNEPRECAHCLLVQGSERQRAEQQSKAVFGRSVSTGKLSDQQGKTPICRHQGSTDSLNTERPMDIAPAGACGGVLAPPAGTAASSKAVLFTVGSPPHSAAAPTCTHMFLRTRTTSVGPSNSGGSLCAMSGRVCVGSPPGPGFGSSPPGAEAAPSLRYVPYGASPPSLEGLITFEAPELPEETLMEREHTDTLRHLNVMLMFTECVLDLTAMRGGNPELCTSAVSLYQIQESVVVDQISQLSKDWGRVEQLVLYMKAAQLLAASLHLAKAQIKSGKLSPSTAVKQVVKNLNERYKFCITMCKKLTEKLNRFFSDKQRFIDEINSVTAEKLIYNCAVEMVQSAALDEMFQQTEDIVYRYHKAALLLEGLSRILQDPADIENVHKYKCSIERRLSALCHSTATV
# [5] = biological target: T2, Serine/threonine-protein kinase ULK2; assay: Inhibition of ULK2 (unknown origin) expressed in HEK293T cells incubated for 2 hrs by NanoBRET assay; type: cell-based
# [6] = Apparent permeability of the compound across apical side to basolateral side in human Caco2 cells; type: ADME, cell-based; conditions: Caco-2
# [7] = Apparent permeability of the compound across basolateral side to apical side in human Caco2 cells; type: ADME, cell-based; conditions: Caco-2
# [8] = biological target: T3, Serine/threonine-protein kinase ULK1 (Homo sapiens) (UniProt O75385); assay: Inhibition of Myc-tagged ULK1 (unknown origin) expressed in HEK293T cells cotransfected with wild-type Flag tagged Beclin-1 assessed as decrease in pBeclin1 Ser15 at 10 uM measured after 1 hr by Western blot analysis; type: cell-based
# T3 sequence (whole entry): T1 sequence (O75385 whole entry)
# [9] = biological target: T3, Serine/threonine-protein kinase ULK1 (Homo sapiens); assay: Inhibition of Myc-tagged ULK1 (unknown origin) expressed in HEK293T cells cotransfected with wild-type Flag tagged Vps34 assessed as decrease in pVPS34 Ser249 at 10 uM measured after 1 hr by Western blot analysis relative to control; type: cell-based
# [10] = Efflux ratio of apparent permeability from basolateral side to apical side over apical side to basolateral side in human Caco2 cells; type: ADME, cell-based; conditions: Caco-2
# [11] = Inhibition of starvation-induced autophagic flux in human MDA-MB-468 cells expressing tandem-labelled mCherryEGFP-LC3 chimeric protein at 10 uM measured after 18 hrs in EBSS media by flow cytometry (Rvb >90%); type: functional
# MDA-MB-468 [12] = assay: Reduction in autophagosome accumulation in human MDA-MB-468 cells at 10 uM by transmission electron microscopic analysis; type: functional, cell-based
smiles,measurement,setting,value
CCN1CCOc2cc(Nc3ncc(C(F)(F)F)c(NC4CC4)n3)cnc21,IC50,[1],31 nM
same,IC50,[2],1210 nM
FC(F)(F)c1cnc(Nc2ccc3[nH]ccc3c2)nc1NC1CC1,IC50,[1],23 nM
same,IC50,[2],9840 nM
NC(=O)c1cccc2cn(-c3ccc([C@@H]4CCCNC4)cc3)nc12 [NIRAPARIB],IC50,MDA-MB-468 [3],7600 nM
FC(F)(F)c1cnc(Nc2ccc3nn[nH]c3c2)nc1NC1CC1,IC50,[1],6 nM
same,IC50,[2],1170 nM
FC(F)(F)c1cnc(Nc2ccc3c(c2)OCCO3)nc1NC1CC1,IC50,[1],14 nM
same,IC50,[2],4480 nM
O=C(Nc1ccc(Nc2ncc(C(F)(F)F)c(NC3CC3)n2)cc1)C1CC1,IC50,[1],13 nM
same,IC50,[2],1330 nM
CNc1nc(Nc2cnc3[nH]ccc3c2)ncc1C(F)(F)F,IC50,[1],34 nM
same,IC50,[2],3630 nM
FC(F)(F)c1cnc(Nc2ccc3c(c2)OCO3)nc1NC1CC1,IC50,[1],21 nM
same,IC50,[2],> 10000 nM
FC(F)(F)c1cnc(Nc2ccc3nc[nH]c3c2)nc1NC1CC1,IC50,[4],720 nM
same,IC50,[5],703 nM
same,Papp A→B,[6],> 10 ×10⁻⁶ cm/s
same,Papp B→A,[7],> 10 ×10⁻⁶ cm/s
same,inhibition,[8],Active
same,inhibition,[9],70%
FC(F)(F)c1cnc(Nc2ccc3ncccc3c2)nc1NC1CC1,IC50,[1],5 nM
same,IC50,[2],739 nM
same,IC50,[4],714 nM
same,IC50,[5],1650 nM
same,Papp A→B,[6],> 10 ×10⁻⁶ cm/s
same,Papp B→A,[7],> 10 ×10⁻⁶ cm/s
same,efflux ratio,[10],< 2
same,inhibition,[8],Active
same,inhibition,[9],70%
CNC(=O)c1ccccc1Oc1nc(Nc2cc(OC)c(OC)c(OC)c2)ncc1Br,IC50,[4],2450 nM
same,IC50,[5],4580 nM
same,inhibition at 10 µM,[11],10%
same,inhibition,MDA-MB-468 [12],Active
O=C1CCCc2cc(Nc3ncc(C(F)(F)F)c(NC4CC4)n3)ccc21,IC50,[1],3 nM
same,IC50,[2],1360 nM
FC(F)(F)c1cnc(Nc2ccc3c(c2)OCCCO3)nc1NC1CC1,IC50,[1],7 nM
same,IC50,[2],1600 nM
same,Papp A→B,[6],> 10 ×10⁻⁶ cm/s
same,Papp B→A,[7],> 10 ×10⁻⁶ cm/s
same,efflux ratio,[10],< 2
FC(F)(F)c1cnc(Nc2ccnnc2)nc1NC1CC1,IC50,[1],40 nM
same,IC50,[2],1610 nM
O=C(C1CC1)N(C(=O)C1CC1)c1ccc(Nc2ncc(C(F)(F)F)c(NC3CC3)n2)cc1,IC50,[1],30 nM
same,IC50,[2],1710 nM
FC1(F)Oc2ccc(Nc3ncc(C(F)(F)F)c(NC4CC4)n3)cc2O1,IC50,[1],42 nM
same,IC50,[2],> 10000 nM
FC(F)(F)c1cnc(Nc2cnc3[nH]ccc3c2)nc1NC1CC1,IC50,[1],29 nM
same,IC50,[2],1930 nM
Nc1ccc(Nc2ncc(C(F)(F)F)c(NC3CC3)n2)cc1,IC50,[1],20 nM
same,IC50,[2],679 nM
same,IC50,[4],1330 nM
same,IC50,[5],1690 nM
same,Papp A→B,[6],> 10 ×10⁻⁶ cm/s
same,Papp B→A,[7],> 10 ×10⁻⁶ cm/s
same,efflux ratio,[10],< 2
same,inhibition,[8],Active
same,inhibition,[9],70%
FC(F)(F)c1cnc(Nc2ccc3ncoc3c2)nc1NC1CC1,IC50,[1],19 nM
same,IC50,[2],1020 nM
same,IC50,[4],1190 nM
same,IC50,[5],4260 nM
same,Papp A→B,[6],> 10 ×10⁻⁶ cm/s
same,Papp B→A,[7],> 10 ×10⁻⁶ cm/s
same,efflux ratio,[10],< 2
same,inhibition,[8],Active
same,inhibition,[9],70%
COc1cncc(Nc2ncc(C(F)(F)F)c(NC3CC3)n2)c1,IC50,[4],695 nM
same,IC50,[5],1890 nM
same,Papp A→B,[6],> 10 ×10⁻⁶ cm/s
same,Papp B→A,[7],> 10 ×10⁻⁶ cm/s
same,inhibition,[8],Active
same,inhibition,[9],70%
Oc1ccccc1Nc1ncc(C(F)(F)F)c(NC2CC2)n1,Papp A→B,[6],> 10 ×10⁻⁶ cm/s
same,Papp B→A,[7],> 10 ×10⁻⁶ cm/s
FC(F)(F)c1cnc(Nc2cnc3[nH]ccc3c2)nc1NC1CCC1,IC50,[1],17 nM
same,IC50,[2],> 10000 nM
FC(F)(F)c1cnc(Nc2cnc3ccccc3c2)nc1NC1CC1,IC50,[1],16 nM
same,IC50,[2],> 10000 nM
Nc1nc(Nc2ccc3c(c2)OCO3)ncc1C(F)(F)F,IC50,[1],230 nM
same,IC50,[2],> 10000 nM
